Legend:
[1] = biological target: T1, Ephrin type-A receptor 8 (Homo sapiens) (UniProt P29322); experiment: Selectivity interaction (KinomeScan (DiscoverX)) EUB0001049a EPHA8; conditions: at 1 µM
T1 sequence (whole entry): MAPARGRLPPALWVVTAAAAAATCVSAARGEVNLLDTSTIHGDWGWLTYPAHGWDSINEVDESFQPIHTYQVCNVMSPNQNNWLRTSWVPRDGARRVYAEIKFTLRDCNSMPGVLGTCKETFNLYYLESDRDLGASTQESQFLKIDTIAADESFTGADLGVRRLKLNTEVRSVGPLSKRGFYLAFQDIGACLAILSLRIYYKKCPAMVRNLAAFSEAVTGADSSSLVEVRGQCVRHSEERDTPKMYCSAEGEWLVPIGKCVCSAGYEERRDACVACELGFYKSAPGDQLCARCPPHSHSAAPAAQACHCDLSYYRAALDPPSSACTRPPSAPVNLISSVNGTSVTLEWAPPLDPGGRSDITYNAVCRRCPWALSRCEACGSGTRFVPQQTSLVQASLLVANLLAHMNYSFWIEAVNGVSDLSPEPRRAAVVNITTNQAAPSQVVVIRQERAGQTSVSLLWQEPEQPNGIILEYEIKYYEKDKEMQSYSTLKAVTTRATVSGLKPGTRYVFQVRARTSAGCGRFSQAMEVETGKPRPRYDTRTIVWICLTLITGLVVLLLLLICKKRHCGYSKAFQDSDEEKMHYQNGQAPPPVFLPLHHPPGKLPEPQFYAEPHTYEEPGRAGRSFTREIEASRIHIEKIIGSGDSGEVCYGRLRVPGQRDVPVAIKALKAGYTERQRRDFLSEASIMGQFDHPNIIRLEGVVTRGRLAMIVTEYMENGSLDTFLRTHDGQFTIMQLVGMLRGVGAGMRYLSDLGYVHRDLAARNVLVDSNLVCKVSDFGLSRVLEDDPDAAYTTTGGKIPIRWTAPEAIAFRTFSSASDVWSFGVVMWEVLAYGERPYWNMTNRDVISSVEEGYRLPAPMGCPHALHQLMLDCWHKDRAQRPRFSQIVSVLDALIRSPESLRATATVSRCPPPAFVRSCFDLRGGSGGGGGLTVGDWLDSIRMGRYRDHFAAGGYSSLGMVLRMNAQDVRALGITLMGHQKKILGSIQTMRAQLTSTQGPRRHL

[2] = biological target: Calcium/calmodulin-dependent protein kinase kinase 1 (Homo sapiens) (UniProt Q8N5S9); experiment: Selectivity interaction (Kinase panel (Invitrogen)) EUB0000639a CAMKK1; conditions: at 200 nM
[3] = biological target: T2, Serine/threonine-protein kinase DCLK3 (Homo sapiens) (UniProt Q9C098); experiment: Selectivity interaction (KinomeScan (DiscoverX)) EUB0000618a DCLK3; conditions: at 10 µM
T2 sequence (whole entry): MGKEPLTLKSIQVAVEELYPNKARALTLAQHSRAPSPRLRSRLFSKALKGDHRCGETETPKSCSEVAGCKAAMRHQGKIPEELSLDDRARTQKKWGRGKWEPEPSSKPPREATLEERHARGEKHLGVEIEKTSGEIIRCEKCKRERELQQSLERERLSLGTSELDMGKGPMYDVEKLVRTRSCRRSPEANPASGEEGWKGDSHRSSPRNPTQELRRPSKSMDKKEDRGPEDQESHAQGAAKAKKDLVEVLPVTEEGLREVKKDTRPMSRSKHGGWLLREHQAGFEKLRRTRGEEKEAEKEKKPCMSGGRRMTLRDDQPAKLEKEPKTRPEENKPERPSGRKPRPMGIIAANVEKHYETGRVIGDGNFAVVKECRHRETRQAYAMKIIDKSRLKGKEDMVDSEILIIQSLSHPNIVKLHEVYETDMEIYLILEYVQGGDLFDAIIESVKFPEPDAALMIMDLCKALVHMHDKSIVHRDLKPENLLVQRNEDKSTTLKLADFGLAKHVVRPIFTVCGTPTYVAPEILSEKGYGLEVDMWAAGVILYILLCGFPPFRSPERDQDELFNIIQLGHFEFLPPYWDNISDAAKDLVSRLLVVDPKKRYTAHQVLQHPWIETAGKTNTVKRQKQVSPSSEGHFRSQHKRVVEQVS

[4] = biological target: T3, Serine/threonine-protein kinase TNNI3K (Homo sapiens) (UniProt Q59H18); experiment: Selectivity interaction (KinomeScan (DiscoverX)) EUB0000618a TNNI3K; conditions: at 10 µM
T3 sequence (whole entry): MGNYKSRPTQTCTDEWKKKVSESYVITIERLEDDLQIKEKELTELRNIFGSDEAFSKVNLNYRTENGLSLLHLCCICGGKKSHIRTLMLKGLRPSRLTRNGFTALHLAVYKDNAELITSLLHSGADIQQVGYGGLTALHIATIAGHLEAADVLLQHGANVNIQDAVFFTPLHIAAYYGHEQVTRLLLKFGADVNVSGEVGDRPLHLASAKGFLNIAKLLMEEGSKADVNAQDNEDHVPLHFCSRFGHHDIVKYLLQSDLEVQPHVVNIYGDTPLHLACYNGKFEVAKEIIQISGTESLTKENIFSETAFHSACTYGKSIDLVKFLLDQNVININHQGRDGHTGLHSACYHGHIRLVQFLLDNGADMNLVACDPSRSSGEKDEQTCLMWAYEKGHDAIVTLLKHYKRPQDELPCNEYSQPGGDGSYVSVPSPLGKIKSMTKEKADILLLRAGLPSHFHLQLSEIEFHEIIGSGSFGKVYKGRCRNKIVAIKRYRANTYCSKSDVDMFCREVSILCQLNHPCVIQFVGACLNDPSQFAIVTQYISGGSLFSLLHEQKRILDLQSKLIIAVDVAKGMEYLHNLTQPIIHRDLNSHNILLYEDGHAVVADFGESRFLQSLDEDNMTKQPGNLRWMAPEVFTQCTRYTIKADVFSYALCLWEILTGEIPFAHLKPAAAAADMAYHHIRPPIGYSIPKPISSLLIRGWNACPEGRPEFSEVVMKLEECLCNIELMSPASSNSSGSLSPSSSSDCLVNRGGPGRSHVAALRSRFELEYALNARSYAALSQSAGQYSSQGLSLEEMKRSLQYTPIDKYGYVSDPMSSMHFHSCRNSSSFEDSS

[5] = biological target: Angiopoietin-1 receptor (Homo sapiens) (UniProt Q02763); experiment: Selectivity interaction (Upstate Kinase Profiler service (Millipore)) EUB0000056c TEK; conditions: at 1 µM
Sequence of Angiopoietin-1 receptor (Homo sapiens) (Q02763 whole entry): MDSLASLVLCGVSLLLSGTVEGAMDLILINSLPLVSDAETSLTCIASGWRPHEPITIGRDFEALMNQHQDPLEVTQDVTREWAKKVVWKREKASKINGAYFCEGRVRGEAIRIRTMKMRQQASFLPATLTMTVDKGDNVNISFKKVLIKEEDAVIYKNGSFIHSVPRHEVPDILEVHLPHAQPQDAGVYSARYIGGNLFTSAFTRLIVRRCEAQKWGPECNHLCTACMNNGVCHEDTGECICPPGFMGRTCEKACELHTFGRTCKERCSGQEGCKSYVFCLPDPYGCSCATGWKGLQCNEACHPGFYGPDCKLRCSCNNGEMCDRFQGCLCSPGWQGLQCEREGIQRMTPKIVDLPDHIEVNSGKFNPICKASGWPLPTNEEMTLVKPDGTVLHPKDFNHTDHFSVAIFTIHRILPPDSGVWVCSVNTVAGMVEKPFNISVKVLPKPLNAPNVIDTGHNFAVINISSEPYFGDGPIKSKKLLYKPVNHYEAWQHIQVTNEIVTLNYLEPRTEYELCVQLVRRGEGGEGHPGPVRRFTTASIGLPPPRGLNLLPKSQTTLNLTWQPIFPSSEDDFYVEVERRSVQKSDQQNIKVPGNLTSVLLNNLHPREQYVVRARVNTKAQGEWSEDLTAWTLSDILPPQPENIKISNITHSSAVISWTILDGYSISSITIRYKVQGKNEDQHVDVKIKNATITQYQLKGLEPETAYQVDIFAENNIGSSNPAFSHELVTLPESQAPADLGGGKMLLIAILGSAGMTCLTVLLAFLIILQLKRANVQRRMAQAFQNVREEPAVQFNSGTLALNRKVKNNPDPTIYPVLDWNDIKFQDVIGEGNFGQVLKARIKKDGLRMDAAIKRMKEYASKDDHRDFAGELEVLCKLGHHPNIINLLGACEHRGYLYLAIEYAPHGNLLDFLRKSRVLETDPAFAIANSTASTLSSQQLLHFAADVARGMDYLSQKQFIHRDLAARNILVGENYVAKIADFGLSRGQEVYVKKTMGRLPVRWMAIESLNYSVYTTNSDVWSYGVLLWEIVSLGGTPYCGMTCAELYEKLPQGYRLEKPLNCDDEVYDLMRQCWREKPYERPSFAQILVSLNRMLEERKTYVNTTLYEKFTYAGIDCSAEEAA

Sequence of Calcium/calmodulin-dependent protein kinase kinase 1 (Homo sapiens) (Q8N5S9 whole entry, looked up): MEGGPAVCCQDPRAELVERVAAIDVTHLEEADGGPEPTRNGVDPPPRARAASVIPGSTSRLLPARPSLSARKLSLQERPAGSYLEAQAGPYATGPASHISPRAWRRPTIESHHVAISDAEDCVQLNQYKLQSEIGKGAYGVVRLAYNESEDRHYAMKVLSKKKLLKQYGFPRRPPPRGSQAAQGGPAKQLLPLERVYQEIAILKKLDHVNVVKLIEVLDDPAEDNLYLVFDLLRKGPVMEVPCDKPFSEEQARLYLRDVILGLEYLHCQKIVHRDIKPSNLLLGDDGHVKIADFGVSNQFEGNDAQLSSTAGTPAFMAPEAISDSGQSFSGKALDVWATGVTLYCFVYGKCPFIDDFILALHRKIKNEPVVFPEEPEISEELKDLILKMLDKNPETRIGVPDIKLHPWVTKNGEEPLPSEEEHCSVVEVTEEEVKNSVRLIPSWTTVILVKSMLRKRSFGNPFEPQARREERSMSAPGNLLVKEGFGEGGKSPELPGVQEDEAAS

COc1cc(Nc2nc(C)cc(-c3cnn4nc(OC)ccc34)n2)cc(C(F)(F)F)c1
% of control [1]: 81%

CC[C@@H]1[C@H](F)C(=O)N[C@@H]1COc1nccc2cc(C(N)=O)c(OC)cc12 [ZIMLOVISERTIB]
% of inhibition [2]: 2.23%

O[C@H]1CC[C@H](Nc2ncc3nc(Nc4c(F)cc(F)cc4F)n([C@H]4CCOC4)c3n2)CC1
% of control [3]: 98% | % of control [4]: 100%

Cc1ccc(-c2ccc3c(ccc4sc5c(c43)NC[C@@H](C)NC5=O)n2)cn1
% of inhibition [5]: -31%
